Measurements from US20050222263A1, “Compositions against stress-related diseases and methods for treating stress-related diseases” (Ajinomoto Co., Inc., priority 2002, published 2005).

Columns and labels:
[1] = tested on: model for gastric ulcer caused by water immersion under restraint; experiment: water-immersion restraint stress gastric ulcer model, intragastric hemorrhage; format: in vivo, Wistar male rats; details: in powdered feed; paroxetine 298 mg/kg diet, lysine hydrochloride 13.3 g/kg diet, arginine 13.3 g/kg diet; water-immersion restraint stress 5 hours
Experimental: A widely used model for gastric ulcer caused by water immersion under restraint was used. That is, rats were placed in a stress cage and immersed in water to the chest for 5 hours (at a temperature of 22-25° C.). The stomach was removed and the degree of intragastric hemorrhage was observed and the hemorrhage area was calculated using an NHI image software.
The test compound was evaluated as follows. Five-week-old Wistar male rats were divided into three groups. The first group was bred with a normal powdered feed; the second group with a powdered feed to which was added a selective serotonin reuptake inhibitor (SSRI) (paroxetine; Glaxo-SmithKline; 298 mg/kg diet) alone; and the third group with a powdered feed containing the same amount of the same SSRI and lysine hydrochloride (13.3 g/kg diet) to which was additionally added arginine (13.3 g/kg diet). Each group consisted of 10 animals. Rats could freely feed before they reached 14 weeks of age. Thereafter, no feed and water were given for 2 days, and on day 3, all of the rats were subjected to the water-immersion restraint stress for 5 hours.

[2] = tested on: animal model of irritable bowel syndrome (wrap-restraint stress); experiment: wrap-restraint stress irritable bowel syndrome model, amount of feces excreted; format: in vivo, Wistar male rats; details: oral, 40 minutes before wrap-restraint stress; lysine hydrochloride 1 g/kg, alprazolam 10 mg/kg; vs control
Experimental: An animal model of irritable bowel syndrome was prepared according to the method as described by Williams et al. (Williams, C. L., Villar, R. G., Peterson, J. M., Burks, T. F., “Stress-induced changes in intestinal transit in the rat: a model for irritable bowel syndrome,” Gastroenterol., vol. 94, pp. 611-621 (1988)). That is, a cotton tape was placed around the anterior limbs of seven-week-old Wistar male rats, the rats were kept in a bracket cage, and then the amount of feces excreted during 2 hours was measured. A test compound was orally administered 40 minutes before starting the wrap-restraint stress. The following groups were examined: 1) control group; 2) a group to which lysine hydrochloride (1 g/kg) alone was given; 3) a group to which a minor tranquilizer alprazolam (10 mg/kg; Takeda Chem. Ind.) alone was given; and 4) a combination group to which lysine hydrochloride (1 g/kg) and alprazolam (10 mg/kg) were given. Each group consisted of 10 animals.

Structure (SMILES)	intragastric hemorrhage (hemorrhage area) [1]	effect on stress-induced increase of amount of feces excreted during 2 hours [2]
Fc1ccc([C@@H]2CCNC[C@H]2COc2ccc3c(c2)OCO3)cc1 [SSRI, paroxetine]	significantly exacerbated the intragastric hemorrhage	
Cc1nnc2n1-c1ccc(Cl)cc1C(c1ccccc1)=NC2 [alprazolam]		no clear effect was observed
Cl.NCCCC[C@H](N)C(=O)O [lysine hydrochloride]		no clear effect was observed
